From article PMC11661381, “Covalent-fragment screening identifies selective inhibitors of multiple Staphylococcus aureus serine hydrolases important for growth and biofilm formation” (Research Square, 2024)

Legend:
[1] = tested on: S. aureus wild type and fph transposon mutants; assay: Bacterial growth inhibition assay, S. aureus; assay type: cell-based, Staphylococcus aureus; details: 1–100 μM
Method: (§1) Bacteria were streaked from glycerol stocks onto agar plates and grown overnight at 37°C. A single colony was inoculated in either Tryptic Soy Broth (TSB; Sigma-Aldrich, St. Louis, MO; used for most species) or Bacto Brain Heart Infusion (BHI; Becton, Dickinson, and Company, Franklin Lakes, NJ; used for L. monocytogenes and S. pyogenes) and grown at 37°C shaking until mid-exponential phase (OD600 = 0.5), then diluted 1:10 in cation-adjusted Mueller Hinton Broth (MHB2, Millipore Sigma, Bedford, MA; used for most species) or BHI (for L. monocytogenes and S. pyogenes). 15 μl of this dilution was added to 135 μl of MHB2 or BHI in a flat-bottom clear 96-well plate for a starting inoculum of ~ 5 × 10^5 CFU/ml.
(§2) For bacterial growth inhibition assay, wild-type S. aureus and transposon mutants (fphB::Tn, fphE::Tn and fphH::Tn) were grown with compounds at final concentrations ranging from 1–100 μM and compared to growth in media with an equivalent percentage of DMSO. Each condition was plated as technical duplicates. The plate was incubated at 37°C with shaking every 15 minutes followed by measurement of OD600 for 14 hr. All growth curves were repeated at least twice and analyzed in GraphPad Prism 10.0 software. For bacterial resistance analysis, overnight culture of S. aureus Newman was diluted to an OD600 of 0.01 in MHB. This was followed by pretreatment with 20 μM N34 or equivalent DMSO volume as control. The pretreatment was allowed to proceed for 3 hr before initiating treatment with different concentrations of the test antibiotics (Table S5). The cultures were incubated overnight at 37°C, 5% CO2 before their optical density was read. The EC50 of the antibiotics against the bacteria in the presence or absence of N34 were determined by fitting the normalized data into a four-parameter logistic model in GraphPad Prism 10.0 software.

rFphH = biological target: T1, rFphH (Staphylococcus aureus, UniProt A0A0H2XJL0); assay: FP-Cy5 active site labeling of recombinant protein, rFphH; assay type: binding; details: 500 nM rFphH
T1 construct: otherwise full-length FphE (Uniprot ID Q2FDS6) and FphH (A0A0H2XJL0) proteins; His6 (3C-cleavable, pETNKI-his-3C-LIC vector) (N); made in house; E. coli is inferred from the pET28a-type vector, IPTG induction and LB/kanamycin
T1 sequence (A0A0H2XJL0 1-246): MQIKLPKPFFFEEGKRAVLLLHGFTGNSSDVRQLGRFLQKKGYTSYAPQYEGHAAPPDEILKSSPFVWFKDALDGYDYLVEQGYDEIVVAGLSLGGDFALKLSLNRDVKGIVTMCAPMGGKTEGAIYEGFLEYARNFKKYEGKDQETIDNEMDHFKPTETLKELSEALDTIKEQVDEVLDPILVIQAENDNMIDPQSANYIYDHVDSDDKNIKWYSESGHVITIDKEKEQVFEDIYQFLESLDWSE
Method: (§3) For activity-based protein labeling experiments, 500 nM of rFphB, rFphE and rFphH in 1X PBS and 0.1% Triton–X were preincubated with different concentrations of inhibitors or DMSO for 2hr at room temperature, followed by adding 300 nM of fluorophosphonate (FP) alkyne and incubated for 30 min at room temperature. Next, 20 μL of the reaction volume were mixed with 2.16 μL of freshly prepared click mix (0.5 μL of 50 mM CuSO4 in H2O, 1.16 μL of 100 mM BTTAA in DMSO, and 0.5 μL of N3-Cy5 in DMSO) and 1.16 μL of 300 mM sodium ascorbate solution in H2O. Samples were incubated at 37°C for 30 min, boiled in SDS loading buffer and analyzed by SDS–PAGE. Cy5 fluorescence was imaged using the Cy5 channel on a Typhoon 9410 Imager (Amersham Biosciences).

[2] = tested on: Fph enzymes in live S. aureus cells (USA300); assay: Competition of FP-alkyne labeling in live S. aureus cells; assay type: cell-based, Staphylococcus aureus
Method: (§4) One colony of each of S. aureus wild-type and transposon mutants fphB::Tn, fphE::Tn and fphH::Tn picked from growth on a Tryptic soya agar plate were inoculated in 5 mL of Tryptic soya broth (TSB). The overnight bacterial cultures were spun down at 5,000 g for 10 min and pellet was collected. The pellets were washed twice in 1X PBS buffer and resuspended in the same buffer. Cells were first preincubated with the indicated concentrations of inhibitors for 2hr at 37°C. The cells were washed twice with 1X PBS buffer. The resuspended pellets were incubated with Fluorophosphonate-alkyne (FP-alkyne) for 30 min at 37°C. Cells were washed again twice with 1X PBS buffer and resuspended in with 1X PBS and 0.1% Triton–X and lysed by beat beating at 4°C. Next, lysed cells (20 μL) were mixed with 2.16 μL of freshly prepared click mix (0.5 μL of 50 mM CuSO4 in H2O, 1.16 μL of 100 mM BTTAA in DMSO, and 0.5 μL of N3-Cy5 in DMSO) and 1.16 μL of 300 mM sodium ascorbate solution in H2O and incubated at 37 °C for 30 min. Next step, 20 μL of 4X SDS loading buffer was added in each sample and boiled at 100 °C for 10 min. The processed samples were allowed to cool and analyzed by SDS-PAGE (12%) running at 120 V in an electrophoresis chamber. Cy5 fluorescence was imaged using the Cy5 channel on a Typhoon 9410 Imager (Amersham Biosciences).

S. aureus Newman = assay: Antibiotic susceptibility after N34 pretreatment; assay type: cell-based, Staphylococcus aureus; details: 20 μM N34 pretreatment, then antibiotics; Table S5
Method: The strong antibiofilm activity of the boronic acid compounds argues for their possible use in combination therapy with antibiotics to treat staphylococcal infections. Therefore, we wanted to test if the N34 treatment impacts the susceptibility profile of the S. aureus to antibiotics. To test this, we pretreated bacteria with a sub-inhibitory concentration of N34 (20 μM) for 2 hours at 37°C followed by treatment with selected antibiotics.
as §2, with “This was followed by pretreatment with 20 μM N34 or equivalent DMSO volume as control. The pretreatment was allowed to proceed for 3 hr before initiating treatment with different concentrations of the test antibiotics (Table S5).” left out

S. epidermidis = assay: Bacterial growth inhibition assay, S. epidermidis; assay type: cell-based, Staphylococcus epidermidis
Method: as §1
(§5) For bacterial growth inhibition assay, wild-type S. aureus and transposon mutants (fphB::Tn, fphE::Tn and fphH::Tn) were grown with compounds at final concentrations ranging from 1–100 μM and compared to growth in media with an equivalent percentage of DMSO. […] All growth curves were repeated at least twice and analyzed in GraphPad Prism 10.0 software. […] The cultures were incubated overnight at 37°C, 5% CO2 before their optical density was read. The EC50 of the antibiotics against the bacteria in the presence or absence of N34 were determined by fitting the normalized data into a four-parameter logistic model in GraphPad Prism 10.0 software.

[3] = tested on: S. aureus biofilm formation; assay: Crystal violet biofilm inhibition assay; assay type: cell-based, Staphylococcus aureus; details: for effect on biofilm formation (in words): wild type S. aureus, 1–100 μM
Method: Overnight cultures of S. aureus (wild-type, transposon mutants and complemented) strains (Table S3) grown in TSB, were subcultured on fresh TSB and grown to OD600 of 0.5. Biofilms were cultured in 96 well plates by transferring 1 μL of the culture to 200 μL of TSB plus 1% glucose with or without the inhibitors and incubated for 16 hours at 37°C without agitation. The inhibitor concentrations ranged from 1, 5, 10, 50 and 100 μM final concentration. Equal volume of DMSO was added as control. The wells were washed to remove the planktonic cells and the plates air-dried before staining with 200μL of 0.1% w/v crystal violet for 10 minutes at room temperature. The wells were washed to remove excess dye and blotted to dry. Each well was filled with 200μL of DMSO for 10 minutes at room temperature to dissolve the dye. The absorbance was measured at 590 nm using Spark multimode microplate reader (TECAN). The data represents n = 3 independent experiments and are expressed as a percentage of the uninhibited wild-type bacteria. All the data are normalized such that 100% represent untreated WT S. aureus. P values were determined using ordinary one-way ANOVA multiple comparisons GraphPad Prism 10.0 software. *P < 0.05, **P < 0.01, ***P < 0.001 and ****P < 0.0001.

Streptococcus pyogenes = assay: Bacterial growth inhibition assay, S. pyogenes; assay type: cell-based
Method: as §1, §5

Escherichia coli = assay: Bacterial growth inhibition assay, E. coli; assay type: cell-based
[4] = Cytotoxicity assay (CellTiter-Blue); assay type: cell-based; details: human; HEK293 cells, 48hr of incubation
Pseudomonas aeruginosa = assay: Bacterial growth inhibition assay, P. aeruginosa; assay type: cell-based
Method: as §1, §5

[5] = biological target: T2, Fph enzymes in live S. aureus cells (USA300) (Staphylococcus aureus, UniProt A0A0H2XJG5); assay: Competition of FP-alkyne labeling in live S. aureus cells; assay type: cell-based; details: live cells, increasing concentrations, 120 min
T2 construct: endogenous in cells; host or cells: live S. aureus USA300 (LAC) wild-type cells
T2 sequence (A0A0H2XJG5 1-322): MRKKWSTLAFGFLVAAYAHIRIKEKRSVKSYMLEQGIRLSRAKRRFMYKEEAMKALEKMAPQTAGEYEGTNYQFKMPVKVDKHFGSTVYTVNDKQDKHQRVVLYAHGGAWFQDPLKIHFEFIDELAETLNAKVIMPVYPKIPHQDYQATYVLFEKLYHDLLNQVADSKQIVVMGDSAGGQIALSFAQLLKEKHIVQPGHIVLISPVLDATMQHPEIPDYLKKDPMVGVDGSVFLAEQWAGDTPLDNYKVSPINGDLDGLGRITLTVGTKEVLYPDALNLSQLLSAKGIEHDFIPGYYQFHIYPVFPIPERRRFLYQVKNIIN
Method: as §4

rFphB [6] = biological target: T3, rFphB (Staphylococcus aureus, UniProt A0A0H2XJG5); assay: Intact protein LC-MS of rFphB with inhibitor; assay type: binding; details: rFphB:X20 1:10
T3 construct: made in house
T3 sequence (A0A0H2XJG5 1-322): T2 sequence (A0A0H2XJG5 1-322)
Method: Next, 10 μL of the labeled sample was injected and analyzed by LC-MS. For LC-MS conditions, 95% solvent A (0.1% formic acid in LC-MS grade water), 5% solvent B (0.1% formic acid in LC-MS grade acetonitrile) at 0.6 mL/min was used for 2 min to remove excess of salts into waste before a linear 6-minute gradient from 80% solvent A (20% solvent B) to 20% solvent A (80% solvent B), followed by a one-minute 95% solvent A (5% solvent B). Protein labeling efficiency was quantified by UV. The acquired mass of protein was deconvoluted using the deconvolution software in Agilent Bioanalysis Software package.

HEK293 cells = assay: Cytotoxicity assay (CellTiter-Blue); assay type: cell-based; details: mammalian cells
rFphB [7] = biological target: T3, rFphB; assay: FP-Cy5 active site labeling competition of recombinant protein, rFphB; assay type: binding
Method: as §3

SMILES	effect on S. aureus growth (in words) [1]	competition of FP-Cy5 labeling of rFphH (in words) (rFphH)	competition of FP labeling in live cells (in words) ([2]; 100 μM compound, live S. aureus cells)	concentration giving partial inhibition of FphE and other lower molecular weight Fph proteins ([2]; live cells, doses 5–100 μM, 120 min preincubation)	impact of N34 pretreatment on antibiotic susceptibility (in words) (S. aureus Newman)	growth inhibition (in words) (S. epidermidis)	effect on biofilm formation in transposon mutants (in words) ([3]; fphH or fphE transposon mutant)	effect on biofilm formation (in words) [3]	growth inhibition (in words) (Streptococcus pyogenes)	growth defect (in words) (Escherichia coli)	CC50 at 48 h [4]	growth defect (in words) (Pseudomonas aeruginosa)	competition of FP-alkyne labeling of native FphB (in words) [5]	reduction of biofilms ([3]; WT cells, highest concentrations)	reduction of biofilms ([3]; fphB mutant)	adduct formation on rFphB (in words) (rFphB [6])	off-target effects in mammalian cells (in words) (HEK293 cells)	competition of FP-Cy5 labeling of rFphB (in words) (rFphB [7])
OB(O)c1ccc(C(F)(F)F)s1 [N34]	both the fphE and fphH mutants grew slower than wild type	dose-dependently blocked labeling of rFphH	blocked FP labeling of FphH	≥ 50 µM	does not impact resistance or susceptibility profiles of the antibiotics	inhibited only by the FphH inhibitor N34	not further increased by addition of even 100 μM concentrations of N34	most pronounced effects	no growth inhibition	no significant growth defect	> 200 µM	no significant growth defect	–	–	–	–	–	–
COc1cc2c(cc1S(=O)(=O)F)C(=O)NCCC2 [X20]	minimal effect on planktonic growth	–	–	–	–	–	–	significant inhibition of biofilm formation	–	–	–	–	retains both its potency and selectivity towards the natively expressed FphB	60%	40%	a single X20 adduct formed	did not show any off-target effects in mammalian cells	dose-dependently blocked labeling of rFphB
